Reference: patent publication US20210172002A1, “DETECTING CELL VITALITY” (THE UNIVERSITY OF WARWICK, priority 2018, published 2021)

Assays:
B. subtilis = assay: Fluorescence response to an electric field in a mixed culture in the presence of vancomycin (FIG. 6); assay type: cell-based, Bacillus subtilis; conditions: vancomycin treated B. subtilis cells in mixed culture with E. coli; trace 601 of FIG. 6
Source text: (§1) In an experimental setup, bacterial cells were inoculated on agarose pads and placed on the electrode surface, enabling monitoring of cells at single-cell resolution by microscopy. The membrane potential dynamics of cells was monitored using the fluorescent Nernstian indicator dye, Thioflavin T (ThT), which has been used extensively with bacteria.
The sample (shown in FIG. 3) was subjected to alternating 3V pulses at a frequency of 100 Hz for 2.5 seconds. The mean response 501 of ten UV-treated cells is shown in FIG. 5 alongside the mean response 502 of ten non-UV-treated cells.
(§2) In the mixed culture. […] The presence of E. coli or other coliforms could therefore be confirmed through fluorescence analysis of a sample treated with a selective antibiotic such as vancomycin.

E. coli = assay: as above; assay type: cell-based, Escherichia coli; conditions: E. coli cells in mixed culture with B. subtilis in the presence of vancomycin; trace 602 of FIG. 6
Source text: as §1
When a series of electrical pulses (±1.5 V AC 0.1 kHz for 2.5 seconds) were applied to E. coli (K12 strain) cells placed in the electrode gaps, the pulses caused hyperpolarization (seen by an increase of ThT fluorescence signal) in vital cells. FIG. 3 illustrates the effect of applying an electric field across a sample 304 as viewed between a pair of opposing electrodes 301, 302 in an apparatus of the type illustrated in FIG. 1. […] An electric field was then applied, and the image shown represents the difference in fluorescence over a period of time after the application of the electric field. […] This provides a clear indication that the change in fluorescence is an indication of the vitality of cells within the sample.
as §2

With CN[C@H](CC(C)C)C(=O)N[C@H]1C(=O)N[C@@H](CC(N)=O)C(=O)N[C@H]2C(=O)N[C@H]3C(=O)N[C@H](C(=O)N[C@H](C(=O)O)c4cc(O)cc(O)c4-c4cc3ccc4O)[C@H](O)c3ccc(c(Cl)c3)Oc3cc2cc(c3O[C@@H]2O[C@H](CO)[C@@H](O)[C@H](O)[C@H]2O[C@H]2C[C@](C)(N)[C@H](O)[C@H](C)O2)Oc2ccc(cc2Cl)[C@H]1O [vancomycin] the “log of a fluorescent response (membrane potential change)” value (B. subtilis) was “depolarization” and the “log of a fluorescent response (membrane potential change)” value (E. coli) was “hyperpolarized”.
